Where two headings read alike, the source gives them in different places.
How the values were obtained:
[1] = Stability test (hydrolysis) in human plasma (80%, 37 °C); assay type: in vitro ADME
Procedure: The condition for determining the values of the observed rate constants is to observe changes in the concentration of the tested compound over time ensuring degradation of at least 80% of the compound. In plasma, hydrolysis reactions were carried out until a minimum 50% loss of the tested compound was obtained except for the extremely stable 6-(4-MeOPh)-TACV under these conditions. In this case, the observed loss was 22% during the 25-h reaction. Further carrying out of this reaction in vitro in a temperature of 37 °C was not recommended (Figure 2).
Stability tests were performed in human plasma (80%, v/v) thermostated in a water bath at 37 °C. In total, 2.50 mg of each of the analyzed compounds were weighed and dissolved in 0.5 mL of DMSO (5.0 mg/mL). For plastic screw-on tubes containing 4.0 mL of plasma, 0.8 mL of PBS buffer were added, mixed, and thermostated in a water bath. Then, 0.2 mL of the tested compound solution in DMSO (5.0 mg/mL) were added to the incubated plasma. Samples were thermostated at 37 °C and at specified intervals. After mixing, 0.2 mL of the test sample were taken and transferred to 0.4 mL of the appropriate internal standard solution (Table 1). After mixing, the samples were centrifuged for […] (5 min, 13,000 rpm). The supernatant was transferred to the tubes and analyzed by the HPLC method in a suitable phase system (Table 1). The initial concentration of the tested compounds in the plasma was 200 μg/mL, while in the analyte solution (supernatant) it was 66.7 μg/mL.
(§1) The HPLC-MS/MS method was used for analysis of the solutions hydrolyzed in plasma (80% v/v, 37 °C, 24 h) and in plasma (80%, v/v) with porcine esterase at a concentration of 5.50 × 10^−9 M (37 °C, 2 h). The samples were prepared according to the procedure described in Section 3.4.1 and Section 3.4.2, and then diluted with water in a proportion of 1:100 (v/v).

[2] = tested on: esterase from porcine liver (PLE); experiment: Stability test in plasma (80%, 37 °C) with porcine liver esterase; assay type: in vitro ADME; details: for kobs. ± Δkobs. / t0.5: plasma 80%
Text: For the correct interpretation of the distribution of the tested compounds under the influence of esterase, it is necessary to know the specificity of the enzymatic reactions (Scheme 1). The biotransformation occurring during enzymatic hydrolysis can be treated as a limited capacity process and described using the Michaelis–Menten equation:(2) V=−dc/dt=Vm·c/KM+c, where: c—substance concentration, V = −(dc/dt)—rate of change of substance concentration, Vm—maximum theoretical speed of the process, and KM—Michaelis constant (numerically equal to the concentration of the substance at which its elimination occurs at a rate equal to half of Vm).
In case the value of the Michaelis constant is much higher than the concentration of the substance (KM >> c), Equation (2) can be simplified to the form of:(3) V=−dc/dt=k2/KM·cE·c=Vm/KM·c=kobs.·c, where: cE—enzyme concentration.
After transformation:(4) kobs.=k2/KM·cE=Vm/KM.
A 1 U/μL aqueous pork esterase solution was prepared by diluting the suspension with 200 μL of water. Here, 168,000 Da was used as the molecular weight of the esterase and the molar concentration of the enzyme in a determined volume of the test sample of 5.0 mL was calculated (1 μL of the enzyme solution in 5.0 mL corresponded to a concentration of 5.50 × 10^−9 M).
For plastic screw-on tubes containing 4.0 mL of plasma, 0.8 mL of PBS buffer was added, mixed, and thermostated in a water bath (37 °C). A fixed volume of enzyme (0.5–11.0 μL) was added to the incubated plasma, mixed, and thermostated for 15 min. Then, 0.2 mL of the tested compound solution in DMSO (5.00 mg/mL) were added, mixed thoroughly, and proceeded as described in Section 3.4.1.
as §1

[3] = Stability of the analyte (supernatant) on storage; assay type: physicochemical; details: supernatant stored in freezer (−20 °C)
Procedure: For each substance, samples with two concentrations in the linearity range of the method were prepared. The supernatants of both solutions were analyzed by HPLC immediately after preparation and after storage at room temperature (25 °C), in a refrigerator (4 °C) and freezer compartment (−20 °C). The degree of decomposition of the tested compounds with respect to the initial value was determined.

[4] = design: method as in PMID 18638532; details: valaciclovir; cited from earlier work

| SMILES | kobs. ± Δkobs. (pseudo-first-order rate constant of hydrolysis) ([1]; human plasma 80%) | t0.5 ([1]; human plasma 80%) [h] | kobs. ± Δkobs. ([2]; cE 3.0 U, 1.65·10^−8 M) | t0.5 ([2]; cE 3.0 U, 1.65·10^−8 M) [min] | kobs. ± Δkobs. ([2]; cE 4.0 U, 2.20·10^−8 M) | t0.5 ([2]; cE 4.0 U, 2.20·10^−8 M) [min] | kobs. ± Δkobs. ([2]; cE 5.0 U, 2.75·10^−8 M) | t0.5 ([2]; cE 5.0 U, 2.75·10^−8 M) [min] | kobs. ± Δkobs. ([2]; cE 6.0 U, 3.30·10^−8 M) | t0.5 ([2]; cE 6.0 U, 3.30·10^−8 M) [min] | time for which analyte solution was considered stable [3] [days] | kobs. ± Δkobs. ([2]; cE 2.0 U, 1.10·10^−8 M) | t0.5 ([2]; cE 2.0 U, 1.10·10^−8 M) [min] | further results |
| --- | --- | --- | --- | --- | --- | --- | --- | --- | --- | --- | --- | --- | --- | --- |
| Nc1nc2c(ncn2COCCOC(=O)c2cccnc2)c(=O)[nH]1 [Nic-ACV] | (4.31 ± 0.23)·10^−4 s^−1 | 0.45 | (5.35 ± 0.23)·10^−4 s^−1 | 21.6 | (5.59 ± 0.50)·10^−4 s^−1 | 20.7 | (5.77 ± 0.32)·10^−4 s^−1 | 20.0 | (6.03 ± 0.22)·10^−4 s^−1 | 19.2 |  |  |  |  |
| CCOC(=O)OCCOCn1cnc2c(=O)[nH]c(N)nc21 [Etc-ACV] | (7.99 ± 0.37)·10^−5 s^−1 | 2.41 | (8.60 ± 0.34)·10^−4 s^−1 | 13.4 | (1.20 ± 0.03)·10^−3 s^−1 | 9.6 | (1.54 ± 0.07)·10^−3 s^−1 | 7.5 |  |  | 27 | (6.48 ± 0.35)·10^−4 s^−1 | 17.8 |  |
| CC(C)C(=O)OCCOCn1cnc2c(=O)[nH]c(N)nc21 [iBut-ACV] | (4.16 ± 0.16)·10^−4 s^−1 | 0.46 | (5.49 ± 0.20)·10^−3 s^−1 | 2.1 |  |  |  |  |  |  |  | (3.98 ± 0.13)·10^−3 s^−1 | 2.9 | kobs. ± Δkobs. ([2]; cE 0.5 U, 2.75·10^−9 M): (1.24 ± 0.12)·10^−3 s^−1; t0.5 ([2]; cE 0.5 U, 2.75·10^−9 M): 9.3 min; kobs. ± Δkobs. ([2]; cE 1.0 U, 5.50·10^−9 M): (2.24 ± 0.09)·10^−3 s^−1; t0.5 ([2]; cE 1.0 U, 5.50·10^−9 M): 5.2 min |
| CC(C)[C@H](N)C(=O)OCCOCn1cnc2c(=O)[nH]c(N)nc21 [valaciclovir] |  |  |  |  |  |  |  |  |  |  |  |  |  | t0.5 [4]: 226 h |
| COc1ccc(-c2cn3c(=O)c4ncn(COCCO)c4nc3[nH]2)cc1 [6-(4-MeOPh)-TACV, 3,9-Dihydro-3-[(2-hydroxyethoxy)methyl]-6-(4-methoxyphenyl)-9-oxo-5H-imidazo[1,2-a]–purine] | (2.81 ± 0.36)·10^−6 s^−1 | 68.40 | (8.21 ± 0.58)·10^−6 s^−1 | 1410 | (8.37 ± 0.24)·10^−6 s^−1 | 1360 |  |  | (9.58 ± 0.39)·10^−6 s^−1 | 1210 | 27 | (7.39 ± 0.49)·10^−6 s^−1 | 1560 | observed loss of compound ([1]; human plasma 80%, 25-h reaction): 22%; degree of hydrolysis seen by HPLC-MS/MS ([1]; plasma 80%, 24 h): occurred to a small extent; degree of hydrolysis seen by HPLC-MS/MS ([2]; plasma 80% with porcine esterase 5.50·10^−9 M, 2 h): occurred to a small extent |
| CC(C)(C)C(=O)OCCOCn1cnc2c(=O)[nH]c(N)nc21 [Piv-ACV] | (2.38 ± 0.17)·10^−5 s^−1 | 8.09 | (8.11 ± 0.15)·10^−4 s^−1 | 14.3 |  |  | (1.40 ± 0.04)·10^−3 s^−1 | 8.3 |  |  | 27 | (4.71 ± 0.10)·10^−4 s^−1 | 24.5 | kobs. ± Δkobs. ([2]; cE 1.0 U, 5.50·10^−9 M): (2.97 ± 0.09)·10^−4 s^−1; t0.5 ([2]; cE 1.0 U, 5.50·10^−9 M): 38.9 min |
| CC(=O)OCCOCn1cnc2c(=O)[nH]c(N)nc21 [Ac-ACV] | (6.47 ± 0.49)·10^−5 s^−1 | 2.98 |  |  | (7.94 ± 0.23)·10^−5 s^−1 | 144 |  |  | (1.15 ± 0.02)·10^−4 s^−1 | 102 |  |  | 264 | kobs. ± Δkobs. ([2]; cE 8.0 U, 4.40·10^−8 M): (1.55 ± 0.04)·10^−4 s^−1; t0.5 ([2]; cE 8.0 U, 4.40·10^−8 M): 72 min |

Source: PMC7249156, “Tricyclic Derivative of Acyclovir and Its Esters in Relation to the Esters of Acyclovir Enzymatic Stability: Enzymatic Stability Study” (Molecules, 2020)
